The experiment deals with T1, Jak2 (Homo sapiens, UniProt O60674).
T1 construct: Cell Type: UT7 cells engineered to express the erythropoietin (EPO) receptor; endogenous in cells; host or cells: UT7 cells engineered to express the EPO receptor
Put plainly: Jak2 (PSTATS UT7) alpha screen assay: inhibition of EPO induced phosphorylation of STAT5 in UT7 cells. Type of experiment: cell-based. The note with it: for EC50: EPO induced pSTAT5, UT7 cells; for Tyk2 selectivity over Jak2: calculated from tabulated EC50 data (Jak2 / Tyk2). A digest of the protocol: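 EPO-receptor-expressing UT7 cells, starved overnight of EPO, preincubated 30 min at 37 °C with compound (8-point 1:3, top 25 µM final), then stimulated with 1 nM EPO for 20 min. After lysis, pSTAT5 (Tyr694/699) measured by SureFire AlphaScreen; EC50 from dose-response of percent activity.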

Consider 2 compounds from patent US10508113B2, “Inhibitors of tyrosine kinase 2 mediated signaling” (AbbVie Inc., priority 2018, dated 2019).

Structures are written as SMILES.

T1 sequence (O60674 whole entry): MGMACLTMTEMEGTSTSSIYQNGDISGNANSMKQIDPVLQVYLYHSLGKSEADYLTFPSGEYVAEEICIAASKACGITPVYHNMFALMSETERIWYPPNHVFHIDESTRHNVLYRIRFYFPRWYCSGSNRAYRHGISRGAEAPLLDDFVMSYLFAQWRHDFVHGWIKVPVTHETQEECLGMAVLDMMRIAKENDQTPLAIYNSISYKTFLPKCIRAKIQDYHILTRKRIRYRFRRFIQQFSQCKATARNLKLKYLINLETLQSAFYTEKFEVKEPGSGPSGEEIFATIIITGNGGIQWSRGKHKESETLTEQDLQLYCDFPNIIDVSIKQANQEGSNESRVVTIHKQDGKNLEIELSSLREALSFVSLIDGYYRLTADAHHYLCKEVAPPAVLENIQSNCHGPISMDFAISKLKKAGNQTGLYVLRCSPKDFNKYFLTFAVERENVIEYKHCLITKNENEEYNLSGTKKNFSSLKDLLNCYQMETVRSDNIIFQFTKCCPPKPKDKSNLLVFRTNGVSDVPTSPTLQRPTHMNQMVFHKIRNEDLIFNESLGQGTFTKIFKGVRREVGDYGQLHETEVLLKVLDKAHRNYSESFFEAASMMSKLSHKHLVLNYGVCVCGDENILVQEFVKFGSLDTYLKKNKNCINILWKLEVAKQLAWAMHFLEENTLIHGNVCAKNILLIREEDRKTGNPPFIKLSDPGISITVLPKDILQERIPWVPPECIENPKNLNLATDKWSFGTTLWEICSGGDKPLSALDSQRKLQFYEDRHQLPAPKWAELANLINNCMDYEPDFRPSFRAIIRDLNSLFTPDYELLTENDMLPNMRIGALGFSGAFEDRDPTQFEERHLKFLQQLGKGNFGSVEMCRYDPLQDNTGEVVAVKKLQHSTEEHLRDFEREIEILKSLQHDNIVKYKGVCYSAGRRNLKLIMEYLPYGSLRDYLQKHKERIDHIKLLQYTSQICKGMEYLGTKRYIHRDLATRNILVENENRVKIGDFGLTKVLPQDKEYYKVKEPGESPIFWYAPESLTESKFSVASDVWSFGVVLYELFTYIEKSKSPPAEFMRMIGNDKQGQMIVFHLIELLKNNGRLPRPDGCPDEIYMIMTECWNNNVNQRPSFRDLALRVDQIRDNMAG

As for `COCc1cc(-c2cn(C)c3cnc(NC(C)=O)cc23)nc([C@]2([C@H](C)O)CCOC2)c1` [Example 22.3, N-(3-(6-((R)-3-((S)-1-hydroxyethyl)tetrahydrofuran-3-yl)-4-(methoxymethyl)pyridin-2-yl)-1-methyl-1H-pyrrolo[2,3-c]pyridin-5-yl)acetamide], the concentration for a half-maximal effect (EC50) (as a rule, the midpoint of the concentration-response curve) is greater than 25 µM and the “Tyk2 selectivity over Jak2” value was >170-fold.
For `COCc1cc(-c2cn(C)c3cnc(NC(C)=O)cc23)nc([C@]2([C@@H](C)O)CCOC2)c1` [Example 22.4, N-(3-(6-((R)-3-((R)-1-hydroxyethyl)tetrahydrofuran-3-yl)-4-(methoxymethyl)pyridin-2-yl)-1-methyl-1H-pyrrolo[2,3-c]pyridin-5-yl)acetamide], in that order: greater than 25 µM and >223-fold.
